From PMC8219695 (Nature Communications, 2021)
Values joined by “and” are separate entries in the source; they are usually repeats but may differ in a detail not shown here. Equal values may be shown once.

System: C57BL/6 mice
Test: Tail-flick dose-response in C57BL/6 mice
Type: in vivo, mouse
Settings: for ED50: Mus musculus, 0.25 h, read-out: ED50 (95% CI) tail-flick, n = 10; for mouse tail-flick assay (%MPE): 15 minute time point, individual animals
Experimental: CD1 mice (n = 10), at peak analgesic time point. […] Dose–response curves of 22 (s.c.), in the tail-flick assay was evaluated 15 min post drug administration in WT, C57 mice (n = 8) and MOR KO mice (n = 5). Each point represents mean ± SEM.
(§1) For analgesic dose–response experiments, male CD1 mice (20–32 g), 6–8 weeks were obtained from Charles River Laboratories and male C57BL/6 mice (22–30 g), 8–15 weeks were obtained from Jackson Lab (Bar Harbor, ME) and housed 5 mice per cage in a vivarium following an IACUC-approved protocol. For male C57BL/6 mice temperature was kept constant at 22 ± 2 °C, and relative humidity was maintained at 50 ± 5%. For male CD1 mice (20–32 g) the temperature was in the range of 20–26 °C and relative humidity maintained within the range of 30–70%. Mice were given access to food and tap water ad libitum. All mice used throughout the manuscript were opioid naïve. All mice were maintained on a 12 h light/dark cycle with Purina rodent chow and water available ad libitum and housed in groups of five until testing.
Tail-flick antinociception was determined using the radiant heat tail-flick technique using an Ugo Basile model 37360 instrument as previously described[95],[96]. The intensity was set to achieve a baseline between 2 and 3 s. Baseline latencies were determined before experimental treatments for all mice. Tail-flick antinociception was assessed as an increase in baseline latency, with a maximal 15 s latency to minimize damage to the tail. Data were analyzed as percent maximal effect, % MPE, and was calculated according to the formula: % MPE = [(observed latency – baseline latency)/(maximal latency – baseline latency)] × 100. Compounds were injected s.c. and antinociception was assessed at the peak effect. Mice were tested for analgesia with cumulative subcutaneous doses of the drug until the mouse can withstand the maximal latency. Once the mouse reached the maximal latency, the mouse was no longer given higher doses. […] In vivo experiments were evaluated using GraphPad Prism 8, San Diego, CA as described above.
96-well plate (no. 60050; Perkin Elmer; Waltham, MA, USA). At time zero, the luciferase substrate coelenterazine H (5 μM) was added to each well. Ligands were added after 5 min, then BRET signal was measured 10 min later. BRET measurements were performed using a PHERAstar FS plate reader (BMG Labtech, Cary, NC, USA). The BRET signal was calculated as the ratio of the light emitted by the mVenus […]
Dose–response curves were fit using a three-parameter logistic equation in GraphPad Prism 8 (Graphpad Software, La Jolla, CA, USA).
All experiments were repeated in at least three independent trials each with triplicate determinations.
as §1, with “dose-response” for “dose–response”, “g),6-8” for “g), 6–8”, “20-26” for “20–26”, “30-70%.” for “30–70%.”
For analgesic testing in knockout animals, wild-type, male C57BL/6 mice (22–33 g), 10-12 weeks were purchased from the Jackson Lab (Bar Harbor, ME). These mice were kept at a constant temperature of 22 ± 2 °C, and relative humidity was maintained at 40-50%. Exon-1/Exon-11 MOR-1 KO mice on a C57 background were bred in the Pintar laboratory at Rutgers University. All mice were maintained on a 12- […]

[1] = sc, s.c., 15 min time point, C57BL/6 mice

Structure (SMILES) | ED50 [1] | mouse tail-flick assay (%MPE) (dose 0.1, s.c., listed as 7-OH mitragynine) | mouse tail-flick assay (%MPE) (dose 0.3, s.c., listed as 7-OH mitragynine) | mouse tail-flick assay (%MPE) (dose 1, s.c.) | analgesic efficacy (Emax) (s.c., 15 min time point, C57BL/6 mice, 7OH normalized to 100%) | mouse tail-flick assay (%MPE) (dose 0.1, s.c.) | mouse tail-flick assay (%MPE) (dose 0.3, s.c.) | mouse tail-flick assay (%MPE) (dose 3, s.c.) | mouse tail-flick assay (%MPE) (dose 10, s.c.) | analgesic efficacy (Emax) (mouse, in vivo, sc)
CC[C@@H]1CN2CC[C@@]3(O)C(=Nc4cccc(OC)c43)[C@@H]2C[C@@H]1/C(=C\OC)C(=O)OC [7OH, 7-Hydroxymitragynine, reference compound] | 0.25 mg/kg | 5.405 %MPE and 8.511 %MPE and 8.661 %MPE and 16.5289 %MPE and 34.8214 %MPE and 6.87 %MPE and 7.627 %MPE and -5.556 %MPE and 0.7299 %MPE and 3.6036 %MPE | 36.036 %MPE and 12.0567 %MPE and 36.2205 %MPE and 44.6281 %MPE and 52.6786 %MPE and 100 %MPE (3×) and 73.7288 %MPE and 72.2628 %MPE | 100 %MPE | 100% |  |  |  |  | 
CC[C@@H]1CN2CC[C@@]3(O)C(=Nc4cc(F)cc(OC)c43)[C@@H]2C[C@@H]1/C(=C\OC)C(=O)OC [11-F-7OH (22), 11-Fluoro-7-hydroxymitragynine] | 0.18 mg/kg |  |  | 68.0672 %MPE and 18.254 %MPE and 1.77 %MPE and 24.6269 %MPE and 3.731 %MPE and 5.785 %MPE and 8.943 %MPE and 18.0451 %MPE and 87.234 %MPE and 3.053 %MPE |  | 1.681 %MPE and 10.3175 %MPE and -0.885 %MPE and 20.8955 %MPE and 3.731 %MPE and 1.653 %MPE and 0.813 %MPE and 15.7895 %MPE and 6.383 %MPE and 0 %MPE | 0.8403 %MPE and 3.1746 %MPE and -13.2743 %MPE and 18.6567 %MPE and 7.463 %MPE and 12.3967 %MPE and 9.7561 %MPE and 0 %MPE and 87.9433 %MPE and 12.2137 %MPE | 18.4874 %MPE and 30.1587 %MPE and 45.1327 %MPE and 31.3433 %MPE and 5.97 %MPE and 7.438 %MPE and 17.8862 %MPE and 23.3083 %MPE and 30.4964 %MPE and 6.87 %MPE | 6.723 %MPE and 21.4286 %MPE and -9.735 %MPE and 22.3881 %MPE and 14.9254 %MPE and 0 %MPE and 17.0732 %MPE and 28.5714 %MPE and 55.3192 %MPE and 12.9771 %MPE | 21%
